Values quoted from earlier work as cited in patent US12673064B2, “Biodegradable drug-polymer conjugate” (POLYACTIVA PTY LTD, priority 2019, dated 2026).

Experiments:
[1] = 0.002% dosage, week 1

Row | Compound | effectiveness versus latanoprost 0.005% [1] | IOP and total outflow resistance (monkeys) | uveoscleral outflow or aqueous flow (monkeys)
1 | CC(C)OC(=O)CNc1cccc(CN(Cc2ccc(-n3cccn3)cc2)S(=O)(=O)c2cccnc2)n1 [Omidenepag isopropyl] | more effective than latanoprost 0.005% | – | –
2 | CCCCC[C@H](O)/C=C/[C@H]1[C@H](O)CC(=O)[C@@H]1SCCCSCC(=O)O [3,7-dithia-PGE1] | – | reduced | without affecting
